Measured values as given in patent US20060179499A1, “Non-human animal models for diabetic complications and their uses” (Biomedical Research Models, Inc., priority 2004, published 2006).

Key:
BBZDR/Wor rats [1] = test: Environmental induction of diabetes in BBZDR/Wor rats (during initial development of the strain); assay type: in vivo, rat
Description: (§1) During the initial development of the BBZDR/Wor strain, we performed several experiments to determine whether BBZDR/Wor animals are susceptible to other environmental triggers of diabetes. […] Lean and obese BBZDR/Wor rats were treated with either the TLR3 ligand, poly I:C, or poly I:C and KRV and the incidence of diabetes was determined. […] In contrast, 35-64% of animals treated with poly I:C+KRV became diabetic. We consistently observed a higher incidence of diabetes among lean BBZDR/Wor animals as compared to obese rats. More experiments will need to be performed to determine whether these differences are statistically significant. We recently revisited the poly I:C experiments in the now, fully-inbred (>40 generations) BBZDR/Wor rat line. […] In contrast to our previous results, we observed that 40% of the lean animals and 50% of the obese females developed hyperglycemia.

BBZDR/Wor rats [2] = test: Preliminary poly I:C experiment in fully-inbred BBZDR/Wor rat line, onset of diabetes; assay type: in vivo; conditions: fully-inbred (>40 generations) line, 5 μg/gm body weight, 3× a week
Description: as §1

BBDR/Wor rats = conditions: cited from earlier work
[3] = system: dorsal root explants and cultured neurons; conditions: application to dorsal root explants and cultured neurons; cited from earlier work

Substance: polyinosine:polycytidylic acid [Poly I:C]
- % Diabetic With Treatment (BBZDR/Wor rats [1]; Lean BBZDR/Wor rats): 0%
- incidence of diabetes (BBZDR/Wor rats [1]; Lean and obese BBZDR/Wor rats together): no animals treated with poly I:C alone developed diabetes
- % Diabetic With Treatment (BBZDR/Wor rats [1]; Obese BBZDR/Wor rats): 0%
- animals that developed hyperglycemia (BBZDR/Wor rats [2]; lean female animals): 40%
- animals that developed hyperglycemia (BBZDR/Wor rats [2]; obese females): 50%
- induction of hyperglycemia (BBDR/Wor rats; low doses, poly I:C alone): do not induce hyperglycemia
- incidence of diabetes (BBDR/Wor rats; poly I:C given just prior to KRV infection): ~100%
- effect on axonal outgrowth [3]: inhibits axonal outgrowth
